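A five-concentration, 48-hour dose response in 96-well plates underlies each endpoint, interpolated linearly between surrounding concentrations. GI50 marks 50% less growth.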 Activity calls are given as the source filed them. No stated cut-off is given here; in the data, active = GI50 up to about 1.1 µM and inactive = higher.
What was measured:
Assay in all cases: NCI anticancer screen, dose series, 48 h
786-0 = test system: 786-0
NCI-H522 = test system: NCI-H522
HOP-92 = test system: HOP-92
PC-3 = test system: PC-3
M14 = test system: M14
SF-295 = test system: SF-295
RPMI-8226 = test system: RPMI-8226
KM12 = test system: KM12
OVCAR-8 = test system: OVCAR-8
OVCAR-4 = test system: OVCAR-4
UACC-257 = test system: UACC-257
T47D = test system: T47D
BT-549 = test system: BT-549
CAKI-1 = test system: CAKI-1
MDA-MB-435 = test system: MDA-MB-435
MDA-MB-231 = test system: MDA-MB-231
K562 = test system: K562
NCI-H460 = test system: NCI-H460

Measured: GI50

O=C(/C=C/C=C/c1ccccc1)c1ccc2c(c1)CCCC2
inactive: 786-0 39 µM | NCI-H522 13.4 µM | HOP-92 30 µM | PC-3 36.5 µM | M14 94.2 µM | SF-295 58.3 µM | RPMI-8226 24.4 µM | KM12 28.8 µM | OVCAR-8 33.1 µM | OVCAR-4 43.7 µM | UACC-257 31.1 µM | T47D 16 µM | BT-549 26 µM | CAKI-1 74.3 µM | MDA-MB-435 18.9 µM | MDA-MB-231 96.6 µM | K562 30.9 µM

CN(C)CCCn1c(Cc2ccc(Cl)cc2)nc2cc(C(F)(F)F)ccc21
inactive: 786-0 13.9 µM | NCI-H522 14.6 µM | HOP-92 9.98 µM | PC-3 15.4 µM | M14 12.7 µM | SF-295 17.5 µM | RPMI-8226 40.8 µM | KM12 14.3 µM | OVCAR-8 17.3 µM | OVCAR-4 13.6 µM | NCI-H460 13.2 µM | UACC-257 15.6 µM | T47D 12 µM | BT-549 17 µM | CAKI-1 13.3 µM | MDA-MB-435 12.9 µM | MDA-MB-231 13.6 µM | K562 6.41 µM

CCCCC1Cc2cc(OC)ccc2-c2nc3cc(OC)ccc3n21.CCCCC1Cc2cc(OC)ccc2-c2nc3ccc(OC)cc3n21 (stereo not drawn)
inactive: 786-0 14.7 µM | NCI-H522 7.67 µM | HOP-92 2.06 µM | PC-3 11.2 µM | M14 15 µM | RPMI-8226 6.81 µM | KM12 18.7 µM | OVCAR-8 15.6 µM | OVCAR-4 4.7 µM | NCI-H460 15.4 µM | UACC-257 14.4 µM | T47D 13.1 µM | BT-549 18.8 µM | CAKI-1 15.6 µM | MDA-MB-435 13.2 µM | MDA-MB-231 13.1 µM | K562 10.5 µM

O=C1c2cc(Br)ccc2-c2ccc3c4ccc5c6c(ccc(c7ccc1c2c73)c64)C(=O)c1cc(Br)ccc1-5
inactive: 786-0 > 100 µM | NCI-H522 > 100 µM | HOP-92 > 100 µM | PC-3 > 100 µM | M14 > 100 µM | RPMI-8226 > 100 µM | KM12 > 100 µM | OVCAR-8 > 100 µM | NCI-H460 > 100 µM | UACC-257 > 100 µM | T47D > 100 µM | BT-549 > 100 µM | CAKI-1 > 100 µM | MDA-MB-435 > 100 µM | MDA-MB-231 > 100 µM | K562 > 100 µM

— ChEMBL document CHEMBL1201862, “PubChem BioAssay data set” (2004)
